Measured values as given in patent US10908171B2, “Additive channels” (Emulate Inc., priority 2016, dated 2021).

System: platelets
Assay: Platelet activation quality control by p-selectin expression
Type: cell-based, human
Conditions: control blood
Procedure: To test for a thrombic event, blood was collected from 4 donors, the as blood alone or blood treated with hu5C8 alone (240 μg/ml), sCD40L (10 ng/ml) alone or with combined hu5C8/sCD40L was incubated for 20 minutes at room temperature. Each sample was further incubated for 5 minutes with fluorescent labels for platelets and fibrinogen. As a standard quality control, the control blood was tested for platelet activation using p-selection expression. We confirmed that platelets in control blood were not activated but upon activation by ADP, over 90% of platelet was positive for p-selectin.

Nc1ncnc2c1ncn2[C@@H]1O[C@H](COP(=O)(O)OP(=O)(O)O)[C@@H](O)[C@H]1O [ADP]
platelets positive for p-selectin upon activation: over 90%
